Test results from patent US7138361B2, “Herbicidal heterocycles” (E. I. du Pont de Nemours and Company, priority 2000, dated 2006).

Columns and labels:
Type in all cases: in vivo
corn (Zea mays) = experiment: Test B postemergence
How it was run: (§1)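 Post-treatment, species sat 13–15 days under greenhouse conditions before visual scoring against controls, 0 (no effect) through 100 (complete control). Application preemergence to sown seeds or postemergence at 1- to 4-leaf stage, using a non-phytotoxic solvent/surfactant formulation.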

[1] = tested on: giant foxtail (Setaria faberii); experiment: Test B postemergence; conditions: Rate 125 g/ha, scale 0 to 100, 0 no effect, 100 complete control
How it was run: as §1

[2] = tested on: velvetleaf (Abutilon theophrasti); experiment: Test B postemergence; conditions: Rate 125 g/ha, scale 0 to 100, 0 no effect, 100 complete control
How it was run: as §1

[3] = tested on: wheat (Triticum aestivum); experiment: Test B postemergence; conditions: Rate 125 g/ha, scale 0 to 100, 0 no effect, 100 complete control
How it was run: as §1

Nightshade = experiment: Test C preemergence
Sunflower [4] = experiment: Test C preemergence; conditions: Rate 125 g/ha; scale 0 to 100, 0 no effect, 100 complete control
[5] = tested on: bermudagrass (Cynodon dactylon); experiment: Test C preemergence; conditions: for Plant response rating (0 to 100 where 0 is no effect and 100 is complete control), Bermudagrass: Rate 500 g/ha, visual evaluation after 12 to 14 days
How it was run: (§2)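 Response scores (0 no effect to 100 complete control) came from visual comparison with untreated controls 12 to 14 days after treatment. Preemergence application was made to seeded soil; postemergence, to plants at the 1- to 4-leaf stage.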

[6] = tested on: cocklebur (Xanthium strumarium); experiment: Test C preemergence; conditions: preemergence; for Plant response rating (0 to 100), Cocklebur: Rate 500 g/ha, visual evaluation after 12 to 14 days
How it was run: as §2

[7] = tested on: common ragweed (Ambrosia elatior); experiment: Test C preemergence; conditions: for Plant response rating (0 to 100), Ragweed, Common: Rate 500 g/ha, visual evaluation after 12 to 14 days
How it was run: as §2

[8] = tested on: crabgrass (Digitaria sanguinalis); experiment: Test C preemergence; conditions: for Plant response rating (0 to 100), Crabgrass: Rate 500 g/ha, visual evaluation after 12 to 14 days
How it was run: as §2

[9] = tested on: giant foxtail (Setaria faberii); experiment: Test C preemergence; conditions: for Plant response rating (0 to 100), Foxtail, Giant: Rate 500 g/ha, visual evaluation after 12 to 14 days
How it was run: as §2

[10] = tested on: goosegrass (Eleusine indica); experiment: Test C preemergence; conditions: for Plant response rating (0 to 100), Goosegrass: Rate 500 g/ha, visual evaluation after 12 to 14 days
How it was run: as §2

[11] = tested on: johnsongrass (Sorghum halepense); experiment: Test C preemergence; conditions: for Plant response rating (0 to 100), Johnsongrass: Rate 500 g/ha, visual evaluation after 12 to 14 days
How it was run: as §2

[12] = tested on: lambsquarters (Chenopodium album); experiment: Test C preemergence; conditions: for Plant response rating (0 to 100), Lambsquarters: Rate 500 g/ha, visual evaluation after 12 to 14 days
How it was run: as §2

[13] = tested on: pigweed (Amaranthus retroflexus); experiment: Test C preemergence; conditions: for Plant response rating (0 to 100), Pigweed: Rate 500 g/ha, visual evaluation after 12 to 14 days
How it was run: as §2

soybean (Glycine max) = experiment: Test C preemergence; conditions: for Plant response rating (0 to 100), Soybean: Rate 500 g/ha, visual evaluation after 12 to 14 days
How it was run: as §2

[14] = tested on: velvetleaf (Abutilon theophrasti); experiment: Test C preemergence; conditions: for Plant response rating (0 to 100), Velvetleaf: Rate 500 g/ha, visual evaluation after 12 to 14 days
How it was run: as §2

[15] = tested on: woolly cupgrass (Eriochloa villosa); experiment: Test C preemergence; conditions: for Plant response rating (0 to 100), Cupgrass, Woolly: Rate 500 g/ha, visual evaluation after 12 to 14 days
How it was run: as §2

[16] = tested on: yellow nutsedge (Cyperus esculentus); experiment: Test C preemergence; conditions: for Plant response rating (0 to 100), Nutsedge: Rate 500 g/ha, visual evaluation after 12 to 14 days
How it was run: as §2

Sunflower [17] = experiment: Test C preemergence; conditions: Rate 62 g/ha, scale 0 to 100
[18] = Rate 125 g/ha, scale 0 to 100, 0 no effect, 100 complete control
[19] = Rate 500 g/ha, scale 0 to 100, 0 is no effect, 100 is complete control, 13 to 15 days
[20] = Rate 250 g/ha, scale 0 to 100, 0 no effect, 100 complete control
[21] = preemergence, Rate 62 g/ha, scale 0 to 100
[22] = preemergence, Rate 250 g/ha, scale 0 to 100, 0 no effect, 100 complete control

SMILES: CCC(C)c1ccn(C2CCN(c3ccc(Cl)c(OC)c3)C2=O)n1 (stereo not shown) [Compound 119]
- Plant response rating, Corn (corn (Zea mays); [18]): 0
- Plant response rating, Corn (corn (Zea mays); [19]): 0
- Plant response rating, Foxtail, Giant [1]: 0
- Plant response rating, Velvetleaf [2]: 30
- Plant response rating, Wheat [3]: 20
- Plant response rating, Nightshade (Nightshade; Rate 62 g/ha, scale 0 to 100): 100
- Plant response rating, Nightshade (Nightshade; [18]): 100
- Plant response rating, Nightshade (Nightshade; [20]): 100
- Plant response rating, Sunflower (Sunflower [4]): 40
- Plant response rating, Bermudagrass [5, 18]: 100
- Plant response rating, Bermudagrass [5, 21]: 100
- Plant response rating (0 to 100 where 0 is no effect and 100 is complete control), Bermudagrass ([5]; preemergence): 100
- Plant response rating, Bermudagrass [5, 22]: 100
- Plant response rating (0 to 100), Cocklebur [6]: 50
- Plant response rating, Cocklebur [6, 20]: 20
- Plant response rating, Ragweed, Common [7, 18]: 100
- Plant response rating, Ragweed, Common [7, 21]: 100
- Plant response rating (0 to 100), Ragweed, Common ([7]; preemergence): 100
- Plant response rating, Ragweed, Common [7, 22]: 100
- Plant response rating, Crabgrass [8, 18]: 100
- Plant response rating, Crabgrass [8, 21]: 100
- Plant response rating (0 to 100), Crabgrass ([8]; preemergence): 100
- Plant response rating, Crabgrass [8, 22]: 100
- Plant response rating, Foxtail, Giant [9, 18]: 100
- Plant response rating, Foxtail, Giant [9, 21]: 50
- Plant response rating (0 to 100), Foxtail, Giant ([9]; preemergence): 100
- Plant response rating, Foxtail, Giant [9, 22]: 90
- Plant response rating, Goosegrass [10, 18]: 100
- Plant response rating, Goosegrass [10, 21]: 100
- Plant response rating (0 to 100), Goosegrass ([10]; preemergence): 100
- Plant response rating, Goosegrass [10, 22]: 100
- Plant response rating, Johnsongrass [11, 18]: 100
- Plant response rating, Johnsongrass [11, 21]: 90
- Plant response rating (0 to 100), Johnsongrass ([11]; preemergence): 100
- Plant response rating, Johnsongrass [11, 22]: 100
- Plant response rating, Lambsquarters [12, 18]: 100
- Plant response rating, Lambsquarters [12, 21]: 100
- Plant response rating (0 to 100), Lambsquarters ([12]; preemergence): 100
- Plant response rating, Lambsquarters [12, 22]: 100
- Plant response rating, Pigweed [13, 18]: 50
- Plant response rating, Pigweed [13, 21]: 50
- Plant response rating (0 to 100), Pigweed ([13]; preemergence): 100
- Plant response rating, Pigweed [13, 22]: 90
- Plant response rating, Soybean (soybean (Glycine max); [18]): 80
- Plant response rating, Soybean (soybean (Glycine max); [21]): 60
- Plant response rating (0 to 100), Soybean (soybean (Glycine max); preemergence): 100
- Plant response rating, Soybean (soybean (Glycine max); [22]): 100
- Plant response rating, Velvetleaf [14, 18]: 100
- Plant response rating, Velvetleaf [14, 21]: 60
- Plant response rating (0 to 100), Velvetleaf ([14]; preemergence): 100
- Plant response rating, Velvetleaf [14, 22]: 100
- Plant response rating, Cupgrass, Woolly [15, 18]: 100
- Plant response rating, Cupgrass, Woolly [15, 21]: 100
- Plant response rating (0 to 100), Cupgrass, Woolly ([15]; preemergence): 100
- Plant response rating, Cupgrass, Woolly [15, 22]: 100
- Plant response rating, Nutsedge [16, 18]: 20
- Plant response rating, Nutsedge [16, 21]: 0
- Plant response rating (0 to 100), Nutsedge ([16]; preemergence): 30
- Plant response rating, Nutsedge [16, 22]: 30
- Plant response rating, Sunflower (Sunflower [17]): 40

SMILES: CCOc1cccc(N2CCC(n3ccc(C(C)(C)C)n3)C2=O)c1 (stereo not shown) [Compound 130]
- Plant response rating, Corn (corn (Zea mays); [18]): 0
- Plant response rating, Corn (corn (Zea mays); [19]): 0
- Plant response rating, Foxtail, Giant [1]: 0
- Plant response rating, Velvetleaf [2]: 0
- Plant response rating, Wheat [3]: 0
- Plant response rating, Nightshade (Nightshade; Rate 62 g/ha, scale 0 to 100): 100
- Plant response rating, Nightshade (Nightshade; [18]): 100
- Plant response rating, Nightshade (Nightshade; [20]): 100
- Plant response rating, Sunflower (Sunflower [4]): 60
- Plant response rating, Bermudagrass [5, 18]: 100
- Plant response rating, Bermudagrass [5, 21]: 100
- Plant response rating (0 to 100 where 0 is no effect and 100 is complete control), Bermudagrass ([5]; preemergence): 100
- Plant response rating, Bermudagrass [5, 22]: 100
- Plant response rating, Cocklebur ([6]; Rate 62 g/ha, scale 0 to 100): 0
- Plant response rating (0 to 100), Cocklebur [6]: 0
- Plant response rating, Cocklebur [6, 20]: 0
- Plant response rating, Ragweed, Common [7, 18]: 100
- Plant response rating, Ragweed, Common [7, 21]: 100
- Plant response rating (0 to 100), Ragweed, Common ([7]; preemergence): 100
- Plant response rating, Ragweed, Common [7, 22]: 100
- Plant response rating, Crabgrass [8, 18]: 100
- Plant response rating, Crabgrass [8, 21]: 100
- Plant response rating (0 to 100), Crabgrass ([8]; preemergence): 100
- Plant response rating, Crabgrass [8, 22]: 100
- Plant response rating, Foxtail, Giant [9, 18]: 100
- Plant response rating, Foxtail, Giant [9, 21]: 90
- Plant response rating (0 to 100), Foxtail, Giant ([9]; preemergence): 100
- Plant response rating, Foxtail, Giant [9, 22]: 100
- Plant response rating, Goosegrass [10, 18]: 100
- Plant response rating, Goosegrass [10, 21]: 100
- Plant response rating (0 to 100), Goosegrass ([10]; preemergence): 100
- Plant response rating, Goosegrass [10, 22]: 100
- Plant response rating, Johnsongrass [11, 18]: 90
- Plant response rating, Johnsongrass [11, 21]: 0
- Plant response rating (0 to 100), Johnsongrass ([11]; preemergence): 100
- Plant response rating, Johnsongrass [11, 22]: 100
- Plant response rating, Lambsquarters [12, 18]: 100
- Plant response rating, Lambsquarters [12, 21]: 100
- Plant response rating (0 to 100), Lambsquarters ([12]; preemergence): 100
- Plant response rating, Lambsquarters [12, 22]: 100
- Plant response rating, Pigweed [13, 18]: 100
- Plant response rating, Pigweed [13, 21]: 100
- Plant response rating (0 to 100), Pigweed ([13]; preemergence): 100
- Plant response rating, Pigweed [13, 22]: 100
- Plant response rating, Soybean (soybean (Glycine max); [18]): 30
- Plant response rating, Soybean (soybean (Glycine max); [21]): 30
- Plant response rating (0 to 100), Soybean (soybean (Glycine max); preemergence): 60
- Plant response rating, Soybean (soybean (Glycine max); [22]): 40
- Plant response rating, Velvetleaf [14, 18]: 60
- Plant response rating, Velvetleaf [14, 21]: 60
- Plant response rating (0 to 100), Velvetleaf ([14]; preemergence): 60
- Plant response rating, Velvetleaf [14, 22]: 60
- Plant response rating, Cupgrass, Woolly [15, 18]: 100
- Plant response rating, Cupgrass, Woolly [15, 21]: 100
- Plant response rating (0 to 100), Cupgrass, Woolly ([15]; preemergence): 100
- Plant response rating, Cupgrass, Woolly [15, 22]: 100
- Plant response rating, Nutsedge [16, 18]: 80
- Plant response rating, Nutsedge [16, 21]: 30
- Plant response rating (0 to 100), Nutsedge ([16]; preemergence): 100
- Plant response rating, Nutsedge [16, 22]: 100
- Plant response rating, Sunflower (Sunflower [17]): 60
